Assay results from US9446026B2, “Ocular formulations for drug-delivery to the posterior segment of the eye” (PanOptica, Inc., priority 2013, dated 2016).

Legend:
[1] = Ocular tissue concentrations, 0.3% Compound-I Tris-based suspension twice daily 30 days; format: in vivo, Dutch-Belted rabbits; details: Dutch-Belted, rabbit, topical
[2] = target: FGFR-2 (Homo sapiens (Human), UniProt P21802); assay: In vitro inhibition of tyrosine kinases; format: biochemical
[3] = 5-day PK with topical ocular Compound-I in cyclodextrin-based solutions (Example 6); format: in vivo; details: HPβCD solutions, Dutch-Belted rabbits, q.d.; 24 hr after first daily dose on day 4 (Groups 5b, 6b); LLOQ 0.0218 μM
Description: All doses were administered with ±1 hour of the scheduled dose time, except on day 1 for Groups 1, 4, and 10. The first dose on day 1 was administered at 12:00 PM, and the second dose (for Groups 1 and 10) was administered approximately 4 hours after. This was due to delayed arrival of formulations. All other dosing for these groups was as scheduled. On day 1, Groups 4-8, and 11-12 received one dose (q.d.) for four (4) days. On days 1 through 4, Groups 1-3, and 9-10 received b.i.d. dosing approximately 8 hours apart for four (4) days.
Ocular sampling occurred one hour following the first daily dose on day 5 for all groups, except Groups 5b and 6b, where ocular sampling occurred 24 hours after the first daily dose on day 4.
Blood samples for plasma collection were obtained just prior to scheduled euthanasia for all animals. […] Cornea, central retina, and central choroid samples from groups 1-12 were assayed. Aqueous humor, peripheral retina, and peripheral choroid samples were not assayed.

[4] = tested on: human tumor xenographs; assay: Human tumor xenographs in athymic mice; format: in vivo; details: systemic administration
[5] = 1- to 5-day PK with topical ocular Compound-I formulations (Example 5); details: Dutch Belted, rabbit, aqueous humor, Average Concentration of Compound-I, Dutch Belted rabbits, topical ocular q.d. or b.i.d., 24 hr post-dose, Group per row, LLOQ 0.000903 μM
Description: All doses were administered within ±1 hour of the scheduled dose time. On day 1, Groups 1, 2, 4-6, 8, 10, 11, 13, 15, and 17 received one dose (q.d.) for either one (1) or four (4) days. […] Animals in Groups 18 and 19 received b.i.d dosing of vehicle only formulations for five (5) consecutive days.
Ocular sampling occurred for Group 1 at 0.5, 1, 2, 4, 8, or 24 hours post-dose relative to the day 1 dose. Ocular sampling occurred for Groups 2 and 6 at 1, 8, and 24 hours post-dose relative to the day 5 morning dose. Ocular sampling for Groups 3, 7, 8, 11, and 13 occurred at 1 and 24 hours post-dose relative to the day 5 morning dose. Ocular sampling for Groups 4, 9, 10, 12, 14, 15, 16, and 17 occurred at 1 hour post-dose relative to the day 5 morning dose. Group 5 ocular sampling occurred at 0.5, 1, 2, 4, 8, and 24 hours post-dose relative to the day 1 dose. Animals in Groups 18 and 19 were followed only by clinical observations for five (5) days.
Aqueous humor, cornea, central and peripheral retina, and central and peripheral choroid samples were collected. Aqueous humor, cornea, central retina, and central choroid samples were then assayed. Peripheral retina and peripheral choroid samples were assayed only for Groups 1-8, 12, 14, and 16 per study protocol.
Rabbit aqueous humor, cornea, central and peripheral retina, and central and peripheral choroid samples were analyzed.

[6] = target: recombinant FGFR-2 tyrosine kinase (Homo sapiens (Human), UniProt P21802); assay: Inhibition of recombinant FGFR-2 tyrosine kinase using exogenous substrate; format: biochemical
Sequence of recombinant FGFR-2 tyrosine kinase (P21802 22-821): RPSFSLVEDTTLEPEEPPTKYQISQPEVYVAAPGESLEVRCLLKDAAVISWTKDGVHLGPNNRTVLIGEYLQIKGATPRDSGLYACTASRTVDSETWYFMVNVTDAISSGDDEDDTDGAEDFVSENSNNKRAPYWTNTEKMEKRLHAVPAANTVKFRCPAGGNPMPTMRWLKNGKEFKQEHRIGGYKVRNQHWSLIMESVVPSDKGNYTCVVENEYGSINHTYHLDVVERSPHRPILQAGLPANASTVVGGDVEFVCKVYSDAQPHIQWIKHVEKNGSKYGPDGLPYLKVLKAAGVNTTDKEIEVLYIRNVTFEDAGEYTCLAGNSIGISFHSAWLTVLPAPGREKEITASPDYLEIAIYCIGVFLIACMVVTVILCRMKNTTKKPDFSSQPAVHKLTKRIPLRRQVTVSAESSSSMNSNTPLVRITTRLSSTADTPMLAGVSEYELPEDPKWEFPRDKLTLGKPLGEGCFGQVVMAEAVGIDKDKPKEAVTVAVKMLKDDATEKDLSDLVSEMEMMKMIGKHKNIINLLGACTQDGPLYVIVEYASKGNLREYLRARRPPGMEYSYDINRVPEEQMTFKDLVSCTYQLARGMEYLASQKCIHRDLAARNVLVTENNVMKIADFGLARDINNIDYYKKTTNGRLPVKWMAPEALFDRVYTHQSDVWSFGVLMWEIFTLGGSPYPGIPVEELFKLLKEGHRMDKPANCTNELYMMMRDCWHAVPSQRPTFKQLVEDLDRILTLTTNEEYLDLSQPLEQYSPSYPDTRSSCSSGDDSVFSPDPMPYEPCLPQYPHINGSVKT

[7] = set-up: species or system Dutch-belted rabbits; details: rabbit, in vivo
[8] = target: FGFR-4 (Homo sapiens (Human), UniProt P22455); assay: In vitro inhibition of tyrosine kinases; format: biochemical
Sequence of FGFR-4 (P22455 22-802): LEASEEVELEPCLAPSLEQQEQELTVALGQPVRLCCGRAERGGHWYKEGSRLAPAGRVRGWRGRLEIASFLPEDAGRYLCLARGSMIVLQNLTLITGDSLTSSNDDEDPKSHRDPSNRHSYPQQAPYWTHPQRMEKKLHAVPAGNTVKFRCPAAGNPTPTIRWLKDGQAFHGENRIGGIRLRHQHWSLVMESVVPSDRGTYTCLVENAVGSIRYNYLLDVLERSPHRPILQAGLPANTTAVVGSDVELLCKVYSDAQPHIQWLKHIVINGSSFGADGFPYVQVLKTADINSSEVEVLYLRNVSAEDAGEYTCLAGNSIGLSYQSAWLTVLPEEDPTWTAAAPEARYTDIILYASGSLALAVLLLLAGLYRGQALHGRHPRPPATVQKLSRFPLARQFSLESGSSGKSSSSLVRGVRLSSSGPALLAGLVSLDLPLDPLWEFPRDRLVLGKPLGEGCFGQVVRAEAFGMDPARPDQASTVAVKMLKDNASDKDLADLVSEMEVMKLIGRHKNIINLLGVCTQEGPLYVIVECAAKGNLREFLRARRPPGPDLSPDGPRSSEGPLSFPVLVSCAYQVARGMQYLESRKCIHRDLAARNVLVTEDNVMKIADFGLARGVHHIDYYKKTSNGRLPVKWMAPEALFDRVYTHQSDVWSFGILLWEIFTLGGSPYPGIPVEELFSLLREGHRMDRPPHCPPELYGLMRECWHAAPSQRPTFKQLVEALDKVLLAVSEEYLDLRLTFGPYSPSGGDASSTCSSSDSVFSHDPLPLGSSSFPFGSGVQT

[9] = target: KDR (VEGFR-2) (Homo sapiens (Human), UniProt P35968); assay: In vitro inhibition of tyrosine kinases; format: biochemical; details: 300 nM (170.67 ng/mL)
Sequence of KDR (VEGFR-2) (P35968 20-1356): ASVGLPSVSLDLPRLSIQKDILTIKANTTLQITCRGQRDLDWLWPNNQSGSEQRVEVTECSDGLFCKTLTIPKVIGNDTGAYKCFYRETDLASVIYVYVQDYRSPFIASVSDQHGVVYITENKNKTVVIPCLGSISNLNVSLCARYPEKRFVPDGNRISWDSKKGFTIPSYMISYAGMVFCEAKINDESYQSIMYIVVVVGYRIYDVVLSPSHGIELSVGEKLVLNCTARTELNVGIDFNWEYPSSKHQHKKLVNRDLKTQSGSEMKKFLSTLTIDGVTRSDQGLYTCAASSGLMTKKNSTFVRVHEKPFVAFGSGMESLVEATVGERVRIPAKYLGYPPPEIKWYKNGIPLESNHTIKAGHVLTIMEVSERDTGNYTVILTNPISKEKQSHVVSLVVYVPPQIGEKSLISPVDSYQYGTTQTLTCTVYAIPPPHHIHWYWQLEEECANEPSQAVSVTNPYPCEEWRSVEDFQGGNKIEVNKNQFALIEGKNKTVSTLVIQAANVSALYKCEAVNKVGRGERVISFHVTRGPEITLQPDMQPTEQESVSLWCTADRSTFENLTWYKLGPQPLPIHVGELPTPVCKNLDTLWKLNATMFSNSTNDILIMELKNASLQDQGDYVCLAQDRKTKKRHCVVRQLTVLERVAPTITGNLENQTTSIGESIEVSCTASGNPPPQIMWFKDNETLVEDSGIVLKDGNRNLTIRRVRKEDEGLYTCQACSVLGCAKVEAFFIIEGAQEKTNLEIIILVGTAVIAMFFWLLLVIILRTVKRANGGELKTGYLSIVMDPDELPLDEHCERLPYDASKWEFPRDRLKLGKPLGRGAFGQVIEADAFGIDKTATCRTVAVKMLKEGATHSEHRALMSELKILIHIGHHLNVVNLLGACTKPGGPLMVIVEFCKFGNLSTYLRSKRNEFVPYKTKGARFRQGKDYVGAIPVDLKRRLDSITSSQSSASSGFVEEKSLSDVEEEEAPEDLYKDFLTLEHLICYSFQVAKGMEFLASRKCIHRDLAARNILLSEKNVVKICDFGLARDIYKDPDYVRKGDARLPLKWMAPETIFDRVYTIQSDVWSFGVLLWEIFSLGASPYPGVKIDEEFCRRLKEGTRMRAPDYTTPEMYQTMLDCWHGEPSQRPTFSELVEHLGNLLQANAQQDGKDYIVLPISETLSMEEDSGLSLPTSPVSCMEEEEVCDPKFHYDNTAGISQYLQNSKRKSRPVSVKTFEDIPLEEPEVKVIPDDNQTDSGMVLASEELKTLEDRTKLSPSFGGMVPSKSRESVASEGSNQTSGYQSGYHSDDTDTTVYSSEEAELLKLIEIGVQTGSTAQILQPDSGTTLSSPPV

[10] = Ocular fluid and tissue concentrations, 0.4% Compound-I cyclodextrin solutions (Example 7, 24-day study); format: in vivo, Dutch-Belted rabbits; details: Dutch-Belted, rabbit, topical
Description: The ocular solution of Compound-I comprising cyclodextrin was prepared and tested in different groups of animals.

[11] = 10-point titration curve (257 nM-5000 nM)

Sequence of FGFR-2 (P21802 22-821): as the sequence (P21802 22-821) above

`Cl.NC(=O)c1c(OCc2c(F)cc(Br)cc2F)nsc1NC(=O)NCCCCN1CCCC1` [Compound-I, 3-[(4-bromo-2,6-difluorophenyl)methoxy]-5-[[[[4-(1-pyrrolidinyl)butyl]amino]carbonyl]amino]-4-isothiazolecarboxamide hydrochloride] gave a concentration at 1 h ([1]; aqueous humor, 0.3% Tris-based suspensions with and without benzylalkonium chloride, twice daily, 1 hour after first daily dose on day 30, read-out: Mean ocular tissue concentration, aqueous humor) of 1.27 to 1.45 nM, a concentration at 1 h ([1]; central choroid, 0.3 % w/v, 0.3% Tris Suspension, Twice Daily 30 days, read-out: Central Choroid [Compound I]) of 319 nM and a concentration at 1 h ([1]; central choroid, 0.3% Tris-based suspensions with and without benzylalkonium chloride, twice daily, 1 hour after first daily dose on day 30, read-out: Mean ocular tissue concentration, central choroid) of 303 to 319 nM. It also gave a concentration at 1 h ([1]; central retina, 0.3% Tris-based suspensions with and without benzylalkonium chloride, twice daily, 1 hour after first daily dose on day 30, read-out: Mean ocular tissue concentration, central retina) of 49.5 to 59.2 nM, a concentration at 1 h ([1]; cornea, 0.3 % w/v, 0.3% Tris Suspension, Twice Daily 30 days, read-out: Cornea [Compound I]) of 2690 nM and a concentration at 1 h ([1]; cornea, 0.3% Tris-based suspensions with and without benzylalkonium chloride, twice daily, 1 hour after first daily dose on day 30, read-out: Mean ocular tissue concentration, cornea) of 2690 to 3100 nM. For the same molecule, the concentration at 1 h ([1]; peripheral choroid, 0.3% Tris-based suspensions with and without benzylalkonium chloride, twice daily, 1 hour after first daily dose on day 30, read-out: Mean ocular tissue concentration, peripheral choroid) was 781 to 1210 nM, the concentration at 1 h ([1]; peripheral retina, 0.3% Tris-based suspensions with and without benzylalkonium chloride, twice daily, 1 hour after first daily dose on day 30, read-out: Mean ocular tissue concentration, peripheral retina) was 81.9 to 86.8 nM and the IC50 [2, 11] was 3.08 nM. The “IC50, FGFR-2” value ([2]; 10-point titration curve, hydrochloride) was 1.75 ng/mL and (1.75) ng/mL, the “Average Concentration, Central Retina” value [3] was “<LLOQ” and the “Inhibition of growth of human tumor xenographs” value [4] was “shown to inhibit”. The concentration at 24 h [5] was 5.18 nM, the IC50 [6] was 8.79 nM and the “IC50, recombinant FGFR-2 tyrosine kinase” value ([6]; hydrochloride) was 5 ng/mL and (5) ng/mL. For the same molecule, the “Reduction of corneal exposure with suspension-based and cyclodextrin formulations” value ([7]; Dutch-belted) was 10-100 ×, the “Corneal concentrations with Gel Drop compared to Tris-based suspensions” value [7] was “fifty-fold to hundred-fold higher” and the “Corneal concentrations with Gel Drop compared to cyclodextrin based solution” value [7] was “five-fold to fifteen-fold higher”. For the same molecule, the “IC50, FGFR-4” value ([8]; 10-point titration curve) was “(284.45) ng/mL”, the IC50 [8, 11] was 500 nM and the “Mean % Inhibition at 300 nM Compound-I, KDR (VEGFR-2)” value [9] was “completely inhibited”. It also gave a concentration at 1 h ([10]; aqueous humor, 0.4 % (4 mg/mL), 30 μL/eye, Average concentration of Compound-I, Aqueous Humor, Group 8: 0.4% Compound-I in 8.41% KLEPTOSE HPB, 0.142% phosphate, 30 μL/eye, 2 doses per day) of 6.56 nM, a concentration at 1 h ([10]; aqueous humor, 0.4 % (4 mg/mL), 30 μL/eye, Average concentration of Compound-I, Aqueous Humor, Group 9: 0.4% Compound-I in […] KLEPTOSE HPB, 0.142% phosphate, 30 μL/eye, 2 doses per day) of 3.13 nM and a concentration at 1 h ([10]; aqueous humor, 0.4 % (4 mg/mL), 30 μL/eye, Average concentration of Compound-I, Aqueous Humor, Group 10: 0.4% Compound-I in 4.88% CAPTISOL, 0.142% phosphate, 30 μL/eye, 2 doses per day) of 1.84 nM. For the same molecule, the concentration at 1 h ([10]; aqueous humor, 0.4 % (4 mg/mL), 30 μL/eye, Average concentration of Compound-I, Aqueous Humor, Group 11: 0.4% Compound-I in 4.88% CAPTISOL, […] phosphate, 30 μL/eye, 2 doses per day) was 4.03 nM, the concentration at 1 h ([10]; aqueous humor, 0.4 %, Aqueous humor concentration of Compound-I (range over groups), 0.4% Compound-I cyclodextrin solutions (KLEPTOSE or CAPTISOL), twice daily) was 3.13 to 6.56 nM and the concentration at 1 h ([10]; central choroid, 0.4 %) was 259 to 769 nM. For the same molecule, the concentration at 1 h ([10]; central choroid, 0.4 % (4 mg/mL), 0.4% Ophthalmic Solution (CAPTISOL), Twice Daily 24 days, read-out: Central Choroid [Compound I]) was 212 nM, the concentration at 1 h ([10]; central choroid, 0.4 % (4 mg/mL), 0.4% Ophthalmic Solution (KLEPTOSE HP), Twice Daily 24 days, read-out: Central Choroid [Compound I]) was 259 nM and the concentration at 1 h ([10]; central choroid, 0.4 % (4 mg/mL), 0.4% Ophthalmic Solution (KLEPTOSE HPB), Twice Daily 24 days, read-out: Central Choroid [Compound I]) was 769 nM. It also gave a concentration at 1 h ([10]; central choroid, 0.4 % (4 mg/mL), 30 μL/eye, Average concentration of Compound-I, Central Choroid, Group 8: 0.4% Compound-I in 8.41% KLEPTOSE HPB, 0.142% phosphate, 30 μL/eye, 2 doses per day) of 769 nM, a concentration at 1 h ([10]; central choroid, 0.4 % (4 mg/mL), 30 μL/eye, Average concentration of Compound-I, Central Choroid, Group 9: 0.4% Compound-I in […] KLEPTOSE HPB, 0.142% phosphate, 30 μL/eye, 2 doses per day) of 259 nM and a concentration at 1 h ([10]; central choroid, 0.4 % (4 mg/mL), 30 μL/eye, Average concentration of Compound-I, Central Choroid, Group 10: 0.4% Compound-I in 4.88% CAPTISOL, 0.142% phosphate, 30 μL/eye, 2 doses per day) of 212 nM. For the same molecule, the concentration at 1 h ([10]; central choroid, 0.4 % (4 mg/mL), 30 μL/eye, Average concentration of Compound-I, Central Choroid, Group 11: 0.4% Compound-I in 4.88% CAPTISOL, […] phosphate, 30 μL/eye, 2 doses per day) was 345 nM, the concentration at 1 h ([10]; central retina, 0.4 % (4 mg/mL), 30 μL/eye, Average concentration of Compound-I, Central Retina, Group 8: 0.4% Compound-I in 8.41% KLEPTOSE HPB, 0.142% phosphate, 30 μL/eye, 2 doses per day) was 124 nM and the concentration at 1 h ([10]; central retina, 0.4 % (4 mg/mL), 30 μL/eye, Average concentration of Compound-I, Central Retina, Group 9: 0.4% Compound-I in […] KLEPTOSE HPB, 0.142% phosphate, 30 μL/eye, 2 doses per day) was 74.1 nM. The concentration at 1 h ([10]; central retina, 0.4 % (4 mg/mL), 30 μL/eye, Average concentration of Compound-I, Central Retina, Group 10: 0.4% Compound-I in 4.88% CAPTISOL, 0.142% phosphate, 30 μL/eye, 2 doses per day) was 53.1 nM.
